Measurements reported in patent US5637619A, “Antitumor 2-aminocarbonyl-1, 2-bis(methylsulfonyl)-1-(substituted)hydrazines” (Yale University, priority 1995, dated 1997).
“And” between values parts separate entries of the source, which are not always exact repeats. Equal entries are not always repeated. “Also recorded” adds a separate entry of the source.

Legend:
B16F10 melanoma = assay: B16F10 melanoma, tumor growth delay in mice; assay type: in vivo, C57BL/6 mice; conditions: 100% DMSO
Experimental: (§1) B16F10 melanoma cells were grown in vitro as monolayers in minimum essential medium with Hank's salts supplemented with 10% fetal bovine serum and 1% 200 mM L-glutamine solution. Solid tumors were produced in C57BL/6 female mice 12- to 14-weeks of age by the intradermal injection in the right flank of each mouse of 0.1 mL of a cell suspension containing 10^6 B16F10 cells/mL from freshly trypsinized cultures. After 10-12 days, animals bearing approximately 100 mm^3 tumors were treated ip with compound III or IV dissolved in 100% DMSO for 6 consecutive days, and tumor volumes were measured on alternate days until reaching 1000 mm^3.
(§2) Five mice per group were employed in experiments with the B16F10 melanoma, and 8 mice per group with the M5076 sarcoma, the M109 carcinoma and the LX-1 carcinoma. A minimum of two dose levels per compound were included in each evaluation and drug therapy was initiated 24 h after tumor implantation for the M5076 sarcoma and M109 carcinoma. In the LX-1 experiment, tumor bearing mice were selected and sorted into treatment and control groups on day 6 post-tumor implant such that all tumor weights ranged from 50-100 mg and median tumor weights per group were reasonably similar. Therapeutic results are presented in terms of: (a) increases in lifespan reflected by the relative median survival time (MST) of treated versus control groups (i.e., %T/C values), and by long-term survivors, and (b) primary tumor growth inhibition (i.e., T-C values) determined by calculating the relative median times for treated (T) and control untreated (C) mice to grow tumors of a 0.5 g size for the LX-1 carcinoma or a 1 g size for the murine neoplasms. Tumor weights were interchangeable with tumor size on the basis of 1 mm^3 =1 mg. […] The activity criterion for tumor inhibition was a delay in tumor growth consistent with one log10 cell kill (LCK). The absolute T-C value needed to attain this level of efficacy varied from experiment to experiment and depended upon the tumor volume doubling time of the control mice in each study. Treated mice dying prior to day 10 in the ip M109 experiment, or dying before their tumors achieved 0.5 g for the LX-1 carcinoma or 1 g in size for all other sc tumor models, were considered to have died from drug toxicity. Groups of mice with more than one death due to drug toxicity were not used in the evaluation of antitumor efficacy. Statistical evaluations of data were performed using Gehan's generalized Wilcoxan test (Gehan, Biometrika, 1965, 52, 203-233).
In addition, both compounds III and IV were evaluated in 100% DMSO against the B16F10 melanoma implanted intradermally (id) in mice (Table III). In an initial experiment, compound IV produced a T-C of 15.5 days at a daily dosage level of 20 mg/kg administered once daily for six consecutive days beginning on day 10 post-implant. In the same experiment, using the same treatment schedule, a growth delay of 11 days was obtained with compound III. […] Thus, the aminocarbonyl component in this class of agents influences the magnitude of the antitumor effects obtained against the B16F10 melanoma.

L1210 leukemia = L1210 leukemia survival time in mice (ip implanted); assay type: in vivo, mice (CD2F1); conditions: for %T/C (average survival time treated/control × 100): cures not included
Experimental: (§3) Leukemia L1210 cells were obtained from the Frederick Cancer Research Facility, Division of Cancer Treatment Tumor Repository of the National Cancer Institute, and were maintained by serial passage in tissue culture. Every 8 weeks, tumor cells were injected intraperitoneally into five donor CD2 F1 mice 8- to 10- weeks of age and were allowed to grow for 7 days. The peritoneal fluid was withdrawn and the suspension was centrifuged for 5 min at 1600 g. The supernatant was decanted and 10^5 cells/mL were seeded into 10 mL of RPMI 1640 medium supplemented with 10% fetal bovine serum and 1% L-glutamine, and once again maintained in culture. To assay for antineoplastic activity, 0.1 mL of the cell suspension containing 10^5 L1210 leukemia cells was injected ip into each recipient mouse. Test compounds were administered over a wide range of dosage levels, beginning 24 h after tumor implantation, and continued once daily for 6 consecutive days. All drugs were administered ip as a solution in 100% dimethylsulfoxide (DMSO), in a volume not exceeding 0.025 mL. […] Mice were weighed during the course of the experiments, and the percentage change in body weight from onset to termination of therapy was used as an indication of drug toxicity. Determination of the sensitivity of neoplasms to these agents was based upon the prolongation of survival time afforded by the drug treatments.
(§4) ^a Administered ip once daily for six consecutive days, beginning 24 hours after tumor implantation, with 5-10 mice being used per group. ^b Average percent change in body weight from onset to termination of therapy. ^c % T/C=average survival time of treated/control mice×100; cures (>60-day survivors) are listed separately and are not included in this calculation.

[1] = system: several more stringent distal site tumor models; assay: Comparison with clinically active alkylating agents in several distal site tumor models; assay type: in vivo, mice; conditions: qualitative summary
Experimental: as §1, with “mm^3. […]” for “mm^3.”
Five mice per group were employed in experiments with the B16F10 melanoma, and 8 mice per group with the M5076 sarcoma, the M109 carcinoma and the LX-1 carcinoma. […] Therapeutic results are presented in terms of: (a) increases in lifespan reflected by the relative median survival time (MST) of treated versus control groups (i.e., %T/C values), and by long-term survivors, and (b) primary tumor growth inhibition (i.e., T-C values) determined by calculating the relative median times for treated (T) and control untreated (C) mice to grow tumors of a 0.5 g size for the LX-1 carcinoma or a 1 g size for the murine neoplasms. […]

[2] = Body weight change / toxicity in L1210-bearing mice; assay type: in vivo, mice (CD2F1); conditions: for Av. Wt. Change %: L1210-bearing mice
Experimental: as §3, §4

[3] = system: LX-1 human lung carcinoma; assay: LX-1 human lung carcinoma xenograft, sc in athymic mice; assay type: in vivo, human tumor in athymic (nu/nu) mice; conditions: 40 mg/kg/injection, q2d × 5 from day 6, iv, 100% DMSO
Experimental: The M5076 reticulum cell sarcoma was passaged biweekly by sc transfer of tumor fragments into C57BL/6 mice, and the M109 lung carcinoma was similarly passaged in BALB/c mice. The LX-1 human lung carcinoma was passaged sc every two to three weeks in BALB/c-background athymic (nu/nu) mice. For use in these systems, compound III was dissolved in: (a) 100% DMSO and administered by iv injection in a fixed volume of 10 microliters; or (b) DMSO diluted with saline to a final concentration of 10% DMSO and administered iv in a volume of 0.01 milliliter/g of body weight. […] Mitomycin C and cyclophosphamide were dissolved and administered in saline. BCNU and MeCCNU were dissolved in ethanol and diluted 1:9 (v/v) with water prior to administration.
as §2
The human lung tumor, LX-1, xenografted sc in athymic mice, was also used to examine the antineoplastic potential of compound III. […]

SMILES: CS(=O)(=O)N(CCCl)N(C(=O)NCCCl)S(C)(=O)=O [Compound III, 1,2-bis(methylsulfonyl)-1-(2-chloroethyl)-2-(2-chloroethyl)aminocarbonylhydrazine]
- T-C, growth delay (B16F10 melanoma; experiment a, 20 mg/kg/injection, qd × 6 from day 10, ip, 20 mg/kg): 11 days and 11.0 days
- T-C (B16F10 melanoma; experiment b, 20 mg/kg/injection, qd × 6 from day 12, ip): 5.5 days
- T-C, growth delay (B16F10 melanoma; experiment b, 30 mg/kg/injection, qd × 6 from day 12, ip): 13.5 days
- % 60 Day Survivors (cures) (L1210 leukemia; 10 mg/kg ip once daily × 6): 100%
- % 60 Day Survivors (cures) (L1210 leukemia; 15 mg/kg ip once daily × 6): 80%
- %T/C (average survival time treated/control × 100) (L1210 leukemia; 15 mg/kg ip once daily × 6): 216%
- % 60 Day Survivors (cures) (L1210 leukemia; 20 mg/kg ip once daily × 6): 80%
- %T/C (average survival time treated/control × 100) (L1210 leukemia; 20 mg/kg ip once daily × 6): 239%
- antileukemic activity / therapeutic potential (in words) (L1210 leukemia; qualitative, L1210 leukemia in mice): One of the most active and potent compounds in the series; also recorded: much better therapeutic potential than the amino acid ester derivatives
- antitumor activity versus clinical alkylating agents (in words) [1]: better than or equal to some of the best clinically active alkylating agents used for comparison
- Av. Wt. Change % ([2]; 10 mg/kg ip once daily × 6): -4.7%
- Av. Wt. Change % ([2]; 15 mg/kg ip once daily × 6): -4.0%
- Av. Wt. Change % ([2]; 20 mg/kg ip once daily × 6): -10.4%
- loss in body weight ([2]; 20 mg/kg × 6): 10.4%
- toxicity (in words) ([2]; 20 mg/kg × 6): somewhat toxic
- T-C, median delay in tumor growth to 0.5 g [3]: 14.5 days
- log10 cell kill (LCK) [3]: 1.6 LCK
